Drawing on paper PMC11847541, “Liver fatty acid binding protein FABP1 transfers substrates to cytochrome P450 4A11 for catalysis” (The Journal of Biological Chemistry, 2025), this text covers kon for one compound.

This assay concerns the target T1, P450 4A11 (Homo sapiens, UniProt Q02928).
T1 sequence (Q02928 5-519): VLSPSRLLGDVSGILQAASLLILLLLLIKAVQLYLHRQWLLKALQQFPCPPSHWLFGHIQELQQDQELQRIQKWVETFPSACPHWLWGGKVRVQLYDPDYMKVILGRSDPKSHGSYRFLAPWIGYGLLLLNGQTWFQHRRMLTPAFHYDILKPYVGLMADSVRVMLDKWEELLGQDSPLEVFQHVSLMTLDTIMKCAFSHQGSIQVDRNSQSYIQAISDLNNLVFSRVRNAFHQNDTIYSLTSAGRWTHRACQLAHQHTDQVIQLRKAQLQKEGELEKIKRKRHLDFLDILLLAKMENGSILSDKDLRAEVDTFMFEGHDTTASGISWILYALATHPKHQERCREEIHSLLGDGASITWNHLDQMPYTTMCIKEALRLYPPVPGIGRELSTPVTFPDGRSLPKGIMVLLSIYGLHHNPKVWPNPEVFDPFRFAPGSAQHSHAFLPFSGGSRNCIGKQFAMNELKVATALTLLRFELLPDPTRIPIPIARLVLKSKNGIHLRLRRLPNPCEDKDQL
The assay can be described thus: Stopped-flow kinetics of palmitate binding to P450 4A11 (type I shift). The arrangement: made in house; host or cells: E. coli. The settings on record: P450 4A11 1 μM, palmitate 5 μM; read-out: kon to P450 4A11 (k1). As for the experimental part: To assess the rates of lipid binding to P450 4A11 (k1), type I spectral shift (from ∼420 nm to ∼390 nm, described previously) was monitored after rapid mixing of P450 and palmitate (Fig. 9A, magenta [substrate free], blue [substrate bound]). When P450 4A11 (1 μM) was mixed with palmitate (5 μM), slow binding kinetics were observed (Fig. 9B). Single exponential fitting of the data yielded a binding rate of 0.21 ± 0.03 s^−1 (kon = k1 = 4.2 ± 0.6 × 10^4 M^−1 s^−1).
Figure 9 Kinetics of fatty acid binding to P450 4A11.A, spectra were collected with 1 μM P450 4A11 (purple line) to which 5 μM palmitate (blue line) and 50 μM ketoconazole (red line) were successively added to induce characteristic P450 “type I” and “type II” spectral shifts, respectively. B, P450 4A11 (1 μM) was rapidly mixed with palmitate (5 μM), and the P450 blue shift (A) was monitored and fit to an exponential equation (blue line) yielding a kon value of 0.21 ± 0.03 s^−1. C, 16-OH palmitate (4 μM) and D, palmitate (10 μM) were preincubated with P450 4A11 (2 μM) and rapidly mixed with ketoconazole (100 μM), and the P450 red shift (part A) was monitored and fit to biexponential equations (red lines). […]
On-rates (kon) to P450 4A11 with lipids were determined by monitoring the hypsochromic (“blue,” “type I”) shift in the heme Soret (A418 [hexacoordinated] → A390 [pentacoordinated]) as substrate binds. […]

Usually kon stands for the second-order rate constant of association. On to `CCCCCCCCCCCCCCCC(=O)O` [Palmitate (C16), palmitate], for which the kon was 42000 ± 6e+07 M⁻¹ s⁻¹.
